Tested on: lung adenocarcinoma
Assay: Case reports of patients treated with gefitinib or erlotinib

Row | SMILES | CT scan response of bilateral nodules (patient 2, 150 mg daily, 4 mo after treatment) | adverse effect leading to dose decrease (patient 2, after 14 mo of therapy, dose decreased to 100 mg daily) | disease outcome (patient 2, after 25 mo of treatment) | chest radiograph response (patient 1, 250 mg daily, 2 wk after start) | chest radiograph outcome (patient 1, nine mo later) | disease outcome on adjuvant treatment (patient 3, after three mo)
1 | C#Cc1cccc(Nc2ncnc3cc(OCCOC)c(OCCOC)cc23)c1 [erlotinib] | markedly reduced in number and size | fatigue | the disease progressed within the lung | – | – | –
2 | COc1cc2ncnc(Nc3ccc(F)c(Cl)c3)c2cc1OCCCN1CCOCC1 [gefitinib] | – | – | – | dramatic improvement | progression of disease | developed a new left-sided malignant pleural effusion
